In brackets after ≈: the same amount, converted by molar mass. Entries after “also recorded” stand apart in the source; their conditions may differ. Where a name gives a salt, the structure may show the parent alone.
Tests used:
[1] = physchem
Experimental: The aliquot volumes were typically 25-100 μL.
From the infrared (IR) transmission data of the sample vials, dissolution and precipitation events were recorded as the point of complete transmission of IR and the onset of turbidity by IR respectively.
Samples were held at ambient temperature for 18 hours to maximize the chance of precipitation. Any recoverable solids were analyzed by XRPD.

[2] = physchem; conditions: water, thermodynamic from solid
Experimental: The aliquot volumes were typically 10-20 μL. Complete dissolution of the test material was determined by visual inspection. The solubility was estimated from these experiments based on the total solvent used to provide complete dissolution.

[3] = physchem; conditions: 25 °C, pH 6.6, water, thermodynamic from solid
Experimental: The mixture was stirred and after 30 minutes a thick suspension was formed. Further aliquots (20 μL) of water were added until a fine suspension was formed. This was stirred at 25° C. overnight and filtered to yield a clear solution. The solution was weighed and evaporated to constant weight to determine the solubility.

[4] = Humidity and temperature stressing of AAT-730 free base (XRPD, 1H NMR); type: physicochemical; conditions: for XRPD analysis of post-stressed sample (physical form): 7 days
Experimental: The stability was also tested at a range of elevated relative humidity conditions for 7 days.

[5] = Solubility estimation of AAT-730 by aliquot addition; type: physicochemical; conditions: for Solubility range: 20° C.
Experimental: The aliquot volumes were typically 20-200 μL. […] Samples were held at ambient temperature for at least 18 hours to maximize the chance of precipitation. Any recoverable solids were analyzed by XRPD.

[6] = Thermal stressing of AAT-730 free base forms (Method 2-9); type: physicochemical; conditions: for XRPD after thermal stress: sealed vial, several days
[7] = Salt screening experiments of AAT-730 (XRPD of isolated solids); conditions: salt screen
Experimental: Solutions of the free base in the chosen solvent were added to either solutions of the salt former, or if the salt was not soluble in the solvent, slurries of the salt formers. Any solids which precipitated were recovered and analyzed by XRPD analysis to determine if the solid was crystalline.
The required acid (1 molar equivalent) was added to each HPLC vial and the API stock solution (containing 30 mg of API) was added. The mixtures were stirred at 300 rpm (ambient temperature) for up to 16 hours. Any solids which precipitated were isolated by centrifugation, solvent decanted and solids dried with thin strips of filter paper prior to analysis by XRPD. Any solutions were evaporated to dryness and solids analyzed by XRPD. Gels were either triturated or temperature cycled in MTBE.
API (30 mg), acid co-former (1 mol. eq.) and ethanol (300 μL) were added to HPLC vials and stirred at 40° C. for up to 16 hours. Solids were recovered by centrifugation, solvent decanted and dried with thin strips of filter paper prior to analysis by XRPD. Solutions were evaporated to dryness.
Gels isolated from the screening experiments were triturated in either MTBE or EtOAc to induce precipitation. MTBE or EtOAc (200 μL) was added to the gel and stirred at 40° C. for up to 3 hours prior to cooling to ambient and stirring for up to 48 hours. Any solids were isolated by centrifugation, solvent decanted and solids dried with thin strips of filter paper prior to analysis by XRPD. Any solutions were evaporated to dryness.
Gels isolated from screening experiments were temperature cycled in MTBE according to the following program: • Heating from 20° C. to 40° C. at 0.2° C./minute. • Cooling to 20° C. at 0.1° C./minute. • Stirring speed 400 rpm.
The vials were sealed and the contents milled using a Fritsch Pulverisette 5 planetary mill (30 repetitions of 20 minutes milling at 400 rpm and 20 minutes pause). The resultant material was analyzed using XRPD.
Some of the acid co-formers had pKa values which were suitable for forming either hemi or bis-salts and experiments were carried out using these acids. Crystalline solids were isolated from the experiments using 0.5 mol. eq. of EDSA but these appeared to be composed of polymorphs of the free base and salt formation hadn't occurred with 0.5 mol. eq. of EDSA. The EDSA salt formed with 2 mol. eq. of EDSA yielded solids with the same XRPD pattern as the mono-EDSA salt. Two different crystalline salts were isolated from the reactions with HCl and these may be the mono and bis-HCl salts, however stoichiometry cannot be determined by ^1H NMR. The salt formation with MSA yielded the bis-MSA salt and this is discussed in Example 3-16. The salt isolated with glutaric acid has the same XRPD pattern as the salt isolated with 1 mol. eq. of glutaric acid and is a mono-glutarate salt (Example 3-17). A solid was isolated from the experiment with 2 mol. eq. of sulfuric acid and this may be a sulfate.

Structure (SMILES): CN(C)CCn1c(CC(C)(C)C)nc2cc(S(=O)(=O)C3CN(CCO)C3)ccc21 [AAT-730 HCl salt Pattern 1]
- solubility ([1]; DMSO/water (80/20), ambient temperature, aliquot addition): greater than or equal to 20 mg/mL
- solubility [2]: 164 to 205 mg/mL

Structure (SMILES): CN(C)CCn1c(CC(C)(C)C)nc2cc(S(=O)(=O)C3CN(CCO)C3)ccc21 [AAT-730 HCl salt Pattern 2]
- solubility ([1]; pH 6, water, thermodynamic from solid, aqueous solubility, water, pH 6-7, aliquot addition): 197 to 263 mg/mL

Structure (SMILES): CN(C)CCn1c(CC(C)(C)C)nc2cc(S(=O)(=O)C3CN(CCO)C3)ccc21 [AAT-730 HCl salt, HCl salt of 2-[3-({1-[2-(dimethylamino)ethyl]-2-(2,2-dimethylpropyl)-1H-1,3-benzodiazol-5-yl}sulfonyl)azetidin-1-yl]ethan-1-ol]
- solubility thermodynamic [3]: ~220 mg/mL
- solubility ([1]; 20 °C, aqueous with cosolvent or surfactant or cyclodextrin, thermodynamic from solid, Solubility at 20° C., EtOH/water (50/50), aliquot addition): 205 to 273 mg/mL
- solubility ([1]; 20 °C, organic solvent or mixture, thermodynamic from solid, Solubility at 20° C., DMSO/water (80/20, Aw at most 0.27), aliquot addition): 22 to 25 mg/mL
- solubility ([1]; 20 °C, organic solvent or mixture, thermodynamic from solid, Solubility at 20° C., THF/water (13/1, Aw at most 0.9), aliquot addition): < 20 mg/mL
- solubility ([1]; 20 °C, organic solvent or mixture, thermodynamic from solid, Solubility at 20° C., acetone, aliquot addition): < 20 mg/mL
- solubility ([1]; 20 °C, organic solvent or mixture, thermodynamic from solid, Solubility at 20° C., acetone/water (20/1, Aw at most 0.6), aliquot addition): < 20 mg/mL
- solubility ([1]; 20 °C, organic solvent or mixture, thermodynamic from solid, Solubility at 20° C., acetonitrile, aliquot addition): < 21 mg/mL
- solubility ([1]; 20 °C, organic solvent or mixture, thermodynamic from solid, Solubility at 20° C., dichloromethane, aliquot addition): < 20 mg/mL
- solubility ([1]; 20 °C, organic solvent or mixture, thermodynamic from solid, Solubility at 20° C., ethanol, aliquot addition): < 21 mg/mL
- solubility ([1]; 20 °C, organic solvent or mixture, thermodynamic from solid, Solubility at 20° C., methanol, aliquot addition): < 20 mg/mL
- solubility ([1]; 20 °C, organic solvent or mixture, thermodynamic from solid, Solubility at 20° C., tetrahydrofuran, aliquot addition): < 20 mg/mL
- solubility ([1]; aqueous with cosolvent or surfactant or cyclodextrin, thermodynamic from solid, solubility): ≥ 20 mg/mL
- solubility ([1]; organic solvent or mixture, thermodynamic from solid, solubility, DMSO/water (80/20), ambient temperature, aliquot addition): ≥ 20 mg/mL

Structure (SMILES): CN(C)CCn1c(CC(C)(C)C)nc2cc(S(=O)(=O)C3CN(CCO)C3)ccc21 [AAT-730, 2-[3-({1-[2-(dimethylamino)ethyl]-2-(2,2-dimethylpropyl)-1H-1,3-benzodiazol-5-yl}sulfonyl)azetidin-1-yl]ethan-1-ol]
- 1H NMR analysis of post-stressed samples ([4]; 1 week at 25° C./60% RH, 40° C./75% RH, 70° C./75% RH): no change
- XRPD analysis of post-stressed sample (physical form) ([4]; 25° C./60% RH): remained as an anhydrate
- XRPD analysis of post-stressed sample (physical form) ([4]; 40° C./75% RH, listed as AAT-730 free base): change in form to the hydrate; also recorded: converted to a hydrate
- XRPD analysis of post-stressed sample (physical form) ([4]; 70° C./75% RH, listed as AAT-730 free base): change in form to the hydrate; also recorded: converted to a hydrate
- Solubility range ([5]; 2-propanol, isopropyl alcohol (IPA)): 81 to 87 mg/mL
- Solubility range ([5]; EtOH/water (96/4, Aw at most 0.25)): 313 to 417 mg/mL
- Solubility range ([5]; MeOH/water (84/16, Aw at most 0.44)): 638 to 1275 mg/mL
- Solubility range ([5]; THF/water (96/4, Aw at most 0.74)): 410 to 615 mg/mL
- Solubility range ([5]; acetone): 118 to 157 mg/mL
- Solubility range ([5]; acetone/water (50/50, Aw at most 0.91)): 618 to 1235 mg/mL
- Solubility range ([5]; acetonitrile (ACN)): 145 to 164 mg/mL
- Solubility range ([5]; anisole): 58 to 60 mg/mL
- Solubility range ([5]; cyclohexane): <24 mg/mL
- Solubility range ([5]; dichloromethane (DCM)): 360 to 504 mg/mL
- Solubility range ([5]; dimethyl sulfoxide (DMSO)): 242 to 303 mg/mL
- Solubility range ([5]; dioxane): 117 to 129 mg/mL
- Solubility range ([5]; ethanol (EtOH)): 213 to 256 mg/mL
- Solubility range ([5]; ethyl acetate (EtOAc)): 27 to 28 mg/mL
- Solubility range ([5]; methanol (MeOH)): >510 mg/mL
- Solubility range ([5]; methyl isobutyl ketone (MIBK)): <26 mg/mL
- Solubility range ([5]; methyl tert-butyl ether (MTBE)): <26 mg/mL
- Solubility range ([5]; tetrahydrofuran (THF)): 246 to 492 mg/mL
- solubility ([5]; thermodynamic from solid, water, ambient temperature, aliquot addition, read-out: aqueous solubility): 367 to 514 mg/mL (≈ 868 to 1220 mM)
- Solubility range ([5]; toluene): <25 mg/mL
- XRPD after thermal stress ([6]; 40° C.): Pattern A +
- XRPD after thermal stress ([6]; 60° C.): Pattern A +
- physical stability to thermal stressing ([6]; at the temperatures tested (40 or 60° C.)): physically unstable
- XRPD Result ([7]; EDSA 2 mol. eq., THF, sample CAT0001E-019-04): AAT-730 EDSA
- XRPD Result ([7]; H2SO4 2 mol. eq., THF, sample CAT0001E-019-08): possible sulfate Pattern B
- XRPD Result ([7]; HCl 2 mol. eq., EtOH, sample CAT0001E-019-05B): AAT-730 HCl Pattern B
- XRPD Result ([7]; HCl 2 mol. eq., THF, sample CAT0001E-019-05): AAT-730 HCl Pattern A**
- XRPD Result ([7]; L-aspartic acid 0.5 mol. eq., THF, sample CAT0001E-019-09): API
- XRPD Result ([7]; L-glutamic acid 0.5 mol. eq., THF, sample CAT0001E-019-11): API
- XRPD Result ([7]; MSA 2 mol. eq., THF, sample CAT0001E-019-06): AAT-730 MSA Pattern B
- XRPD Result ([7]; glutaric acid 0.5 mol. eq., THF, sample CAT0001E-019-12): AAT-730 glutarate
